Entries after “also recorded” stand apart in the source; their conditions may differ. Read-outs that look alike come from different tables or passages of the source.
Tests used:
[1] = Simulated gastrointestinal fluid solubility test (SGF, FaSSIF, FeSSIF); type: physicochemical; conditions: fed state simulated intestinal fluid (FeSSIF), 37 °C, pH 4.98, fessif, thermodynamic from solid
Method: As simulated gastrointestinal fluid media (Biorelevant dissolution media) used for environment assessment in the simulated gastrointestinal tract, simulated gastric fluid (SGF), fasted state simulated intestinal fluid (FaSSIF), and fed state simulated intestinal fluid (FeSSIF) were used, and a detailed description of the test is as follows.
All vials were placed on a hot plate stirrer and maintained while stirring at 37° C. and 700 rpm. […] After mixing at 37° C. for 24 hours, 300 μL of the suspension was separated from each vial and analyzed.
The analysis sample was centrifuged at 14000 rpm for 5 minutes, and then the supernatant was diluted 10-fold with ACN:H2O (7/3, v/v) and analyzed by ultra-performance liquid chromatography (UPLC).

[2] = Physicochemical stability test of free form and 5 salts (60° C., 40° C./75% humidity, light); conditions: for Final purity: HPLC
Method: In the case of a light stability test, the vial was stored in a light stability test chamber while being not closed with a lid, and exposed to a total illuminance of 1.2 million lux-hr. A vial light-shielded with aluminum foil was used as an experimental control (Dark control). For stability assessment, state assessment by visual observation, purity assessment using HPLC, and crystalline form assessment using XRPD were conducted, and results thereof are shown in Table 7. […] In FIGS. 19 to 30, “Light” represents light irradiation condition results.

[3] = Solubility test of sulfate (Crystalline form III) in various solvents; type: physicochemical; conditions: thermodynamic from solid
Method: First, solvent screening was performed for a study on various crystalline forms.

[4] = Oral administration pharmacokinetic test using mice; conditions: mice, oral

`O=S1(=O)CCN(Cc2cc(NC3CCOCC3)c3[nH]c(-c4ccccc4)cc3c2)CC1` [Sulfate] gave a solubility at 24 h ([1]; FeSSIF (pH = 4.98), 37° C., after 24 hours, read-out: Solubility) of 130 µg/mL, a solubility at 24 h ([1]; summary Table 9, read-out: Stimulated gastrointestinal fluid solubility, FeSSIF) of 130 µg/mL and an Assay ([2]; 1.2 million lux-hr) of 104.98%. The Purity change ([2]; 1.2 million lux-hr) was “+0.14%”, the XRPD patterns ([2]; 1.2 million lux-hr) was “Pattern 2-I” and the Final purity ([2]; 1.2 million lux-hr) was 99.87%. For the same compound, the Appearance ([2]; 40° C./75% RH, 1 w) was “White powder”, the Assay ([2]; 40° C./75% RH, 1 w) was 109.86% and the Purity change ([2]; 40° C./75% RH, 1 w) was −0.43%. The XRPD patterns ([2]; 40° C./75% RH, 1 w) was “Pattern 2-I”, the Final purity ([2]; 40° C./75% RH, 1 w) was 99.30% and the “Chemical stability (purity change %/1 w), 40° C./75% RH” value ([2]; 40° C./75% RH, 1 w, summary Table 9) was −0.43%. The Appearance ([2]; 60° C., 1 w) was “White powder”, the Assay ([2]; 60° C., 1 w) was 110.59% and the Purity change ([2]; 60° C., 1 w) was “+0.1%”. The XRPD patterns ([2]; 60° C., 1 w) was “Pattern 2-I”, the Final purity ([2]; 60° C., 1 w) was 99.83% and the “Chemical stability (purity change %/1 w), 60° C.” value ([2]; 60° C., 1 w, summary Table 9) was 0.1%. The “Sensitivity to heat, humidity and light conditions (in words)” value ([2]; 60° C., 40° C./75% humidity, 1.2 million lux-hr, listed as sulfate of the compound of Chemical Formula 1) was “sensitive under a humidity condition; also recorded: comparable results to the free form of the compound of Chemical Formula 1 under high-temperature and light stability conditions, except for a humidity condition”, the Assay ([2]; Dark control) was 105.93% and the Purity change ([2]; Dark control) was “+0.02%”. For the same compound, the XRPD patterns ([2]; Dark control) was “Pattern 2-I”, the Final purity ([2]; Dark control) was 99.75% and the “Chemical stability (purity change %/1 w), Light stability” value ([2]; light stability, summary Table 9) was 0.14%. It also gave a solubility ([3]; aqueous with cosolvent or surfactant or cyclodextrin, Acetic acid-H2O (1:1), 25° C., read-out: Solubility) of 196000 to 295000 µg/mL, a solubility ([3]; aqueous with cosolvent or surfactant or cyclodextrin, Acetic acid-H2O (1:1), 50° C., read-out: Solubility) of 300000 to 599000 µg/mL and a solubility ([3]; aqueous with cosolvent or surfactant or cyclodextrin, Acetone-H2O (1:2), 25° C., read-out: Solubility) of 9000 to 19000 µg/mL. It also gave a solubility ([3]; aqueous with cosolvent or surfactant or cyclodextrin, Acetone-H2O (1:2), 50° C., read-out: Solubility) of 37000 to 75000 µg/mL, a solubility ([3]; aqueous with cosolvent or surfactant or cyclodextrin, MeOH/H2O = 1:1(v/v), 25° C., read-out: Solubility) of 2000 to 3000 µg/mL and a solubility ([3]; aqueous with cosolvent or surfactant or cyclodextrin, MeOH/H2O = 1:1(v/v), 50° C., read-out: Solubility) of 9000 to 19000 µg/mL. For the same compound, the solubility ([3]; aqueous with cosolvent or surfactant or cyclodextrin, in MeOH/H2O (1:1 (v:v)) and acetone/water (1:1 (v/v)), read-out: Solubility (good)) was 5000 to 40000 µg/mL, the solubility ([3]; organic solvent or mixture, 1-Butanol, 25° C., read-out: Solubility) was under 2000 µg/mL and the solubility ([3]; organic solvent or mixture, 1-Butanol, 50° C., read-out: Solubility) was under 2000 µg/mL. The solubility ([3]; organic solvent or mixture, 2-MeTHF, 25° C., read-out: Solubility) was under 2000 µg/mL, the solubility ([3]; organic solvent or mixture, 2-MeTHF, 50° C., read-out: Solubility) was under 2000 µg/mL and the solubility ([3]; organic solvent or mixture, ACN, 25° C., read-out: Solubility) was under 2000 µg/mL. For the same compound, the solubility ([3]; organic solvent or mixture, ACN, 50° C., read-out: Solubility) was under 2000 µg/mL, the solubility ([3]; organic solvent or mixture, Acetone, 25° C., read-out: Solubility) was under 2000 µg/mL and the solubility ([3]; organic solvent or mixture, Acetone, 50° C., read-out: Solubility) was under 2000 µg/mL. The solubility ([3]; organic solvent or mixture, CHCl3, 25° C., read-out: Solubility) was under 2000 µg/mL, the solubility ([3]; organic solvent or mixture, CHCl3, 50° C., read-out: Solubility) was under 2000 µg/mL and the solubility ([3]; organic solvent or mixture, DMF, 25° C., read-out: Solubility) was 202000 to 302000 µg/mL. For the same compound, the solubility ([3]; organic solvent or mixture, DMF, 50° C., read-out: Solubility) was 304000 to 608000 µg/mL, the solubility ([3]; organic solvent or mixture, DMSO, 25° C., read-out: Solubility) was 158000 to 210000 µg/mL and the solubility ([3]; organic solvent or mixture, DMSO, 50° C., read-out: Solubility) was 301000 to 602000 µg/mL. For the same compound, the solubility ([3]; organic solvent or mixture, EtOAc, 25° C., read-out: Solubility) was under 2000 µg/mL, the solubility ([3]; organic solvent or mixture, EtOAc, 50° C., read-out: Solubility) was under 2000 µg/mL and the solubility ([3]; organic solvent or mixture, EtOH, 25° C., read-out: Solubility) was under 2000 µg/mL. The solubility ([3]; organic solvent or mixture, EtOH, 50° C., read-out: Solubility) was under 2000 µg/mL, the solubility ([3]; organic solvent or mixture, Heptane, 25° C., read-out: Solubility) was under 2000 µg/mL and the solubility ([3]; organic solvent or mixture, Heptane, 50° C., read-out: Solubility) was under 2000 µg/mL. It also gave a solubility ([3]; organic solvent or mixture, IPA, 25° C., read-out: Solubility) of under 2000 µg/mL, a solubility ([3]; organic solvent or mixture, IPA, 50° C., read-out: Solubility) of under 2000 µg/mL and a solubility ([3]; organic solvent or mixture, MEK, 25° C., read-out: Solubility) of under 2000 µg/mL. It also gave a solubility ([3]; organic solvent or mixture, MEK, 50° C., read-out: Solubility) of under 2000 µg/mL, a solubility ([3]; organic solvent or mixture, MIBK, 25° C., read-out: Solubility) of under 2000 µg/mL and a solubility ([3]; organic solvent or mixture, MIBK, 50° C., read-out: Solubility) of under 2000 µg/mL. It also gave a solubility ([3]; organic solvent or mixture, MTBE, 25° C., read-out: Solubility) of under 2000 µg/mL, a solubility ([3]; organic solvent or mixture, MTBE, 50° C., read-out: Solubility) of under 2000 µg/mL and a solubility ([3]; organic solvent or mixture, MeOH, 25° C., read-out: Solubility) of under 2000 µg/mL. It also gave a solubility ([3]; organic solvent or mixture, MeOH, 50° C., read-out: Solubility) of 2000 to 3000 µg/mL, a solubility ([3]; organic solvent or mixture, NMP, 25° C., read-out: Solubility) of 156000 to 208000 µg/mL and a solubility ([3]; organic solvent or mixture, NMP, 50° C., read-out: Solubility) of 202000 to 304000 µg/mL. The solubility ([3]; organic solvent or mixture, THF, 25° C., read-out: Solubility) was under 2000 µg/mL, the solubility ([3]; organic solvent or mixture, THF, 50° C., read-out: Solubility) was under 2000 µg/mL and the solubility ([3]; organic solvent or mixture, Toluene, 25° C., read-out: Solubility) was under 2000 µg/mL. The solubility ([3]; organic solvent or mixture, Toluene, 50° C., read-out: Solubility) was under 2000 µg/mL, the solubility ([3]; organic solvent or mixture, iPrOAc, 25° C., read-out: Solubility) was under 2000 µg/mL and the solubility ([3]; organic solvent or mixture, iPrOAc, 50° C., read-out: Solubility) was under 2000 µg/mL. For the same compound, the solubility ([3]; organic solvent or mixture, in DMF, NMP, DMSO and acetic acid/water (1:1 (v:v)), read-out: Solubility (excellent)) was at least 150000 µg/mL, the solubility ([3]; organic solvent or mixture, in methanol, ethanol, isopropanol, 1-butanol, acetonitrile, acetone, MEK, MIBK, ethyl acetate, isopropyl acetate, MTBE, tetrahydrofuran, chloroform, toluene, heptane and water, read-out: Solubility (low)) was at most 5000 µg/mL and the solubility ([3]; Water, 25° C., read-out: Solubility) was under 2000 µg/mL. For the same compound, the solubility ([3]; Water, 50° C., read-out: Solubility) was under 2000 µg/mL, the Cmax ([4]; 10 mg/kg) was 3154.8 ng/mL and the t½ ([4]; 10 mg/kg) was 4.0 h. For the same compound, the AUClast ([4]; 10 mg/kg, listed as sulfate of the compound of Chemical Formula 1, 10 mg/kg) was 11499.35 ng·h/mL and the “Pharmacokinetic test, t½” value ([4]; summary Table 9) was 4 h.
